Source: patent publication US20230021329A1, “NANOSTRUCTURED BINARY GEL COMPOSITION AND USE THEREOF” (Veri Nano Inc., priority 2019, published 2023)

Assay: Release study of agents from the gel
Type: physicochemical
[1] = release from hydrogel composition #4, 10 h in PBS

Protocol: 25 ml of PBS was added to each of the beakers. The beakers were put on a plate shaker (Delfia 1296-004) and shaken at the “low” setting for 10 h. The liquid was centrifuged at 21130 rcf for 10 min, and the supernatants were taken for analysis.
BSA Protein release from the nanoparticles was quantified via nanodrop spectrophotometer to determine the concentration of protein in the supernatant, after creating a nanoparticle pellet on centrifugation, all these after 10 hours of incubation in PBS at room temperature.
The concentration released of the Rhodamine B was determined by talking the supernatant after 10 h, centrifuged and diluted the solution by 10×. Subsequently, the absorbance was measured by using a plate reader (Varioskan Lux) and compared to a calibration curve.

amount released [1]: 6.3 mg
percent release [1]: 5.7%
concentration in supernatant (release from hydrogel composition #4, supernatant after 10 h, absorbance vs calibration curve): 252 μ/ml
SMILES: CCN(CC)c1ccc2c(-c3ccccc3C(=O)O)c3ccc(=[N+](CC)CC)cc-3oc2c1.[Cl-] [Rhodamine B]
